According to patent publication US20260000692A1, “Substituted N-(Pyridin-2-yl)Acetamide Derivatives as CDK12/13 Inhibitors” (Aurigene Oncology Limited, priority 2022, published 2026):

Target: CDK12 (Homo sapiens, UniProt Q9NYV4)
Assay: Biochemical assay for CDK12 (LANCE TR-FRET, IC50 determination)
Conditions: for IC50: CDK12, IC50 class, read-out: IC50 μM (in range); for CDK12 % Inhibition @ 10 μM / inhibition at 10 µM: compound at 10 μM; for inhibition at 10 µM: read-out: CDK12 % Inhibition @ 10 μM
Procedure: Biochemical Assay for CDK12 (IC50 Determination):
The inhibitory activity of the test compounds was assessed by the LANCE TR-FRET assay, which detects the ATP-dependent phosphorylation of an ULight-4E-BP1 (Thr37/Thr46) substrate peptide (100 nM) by CDK12 (30 nM). Briefly, the enzyme reaction was run in reaction buffer (25 mM HEPES (pH 7.5), 10 mM MgCl2, […], 0.01% Triton x, 1 mM DTT). The assay was performed in 384-well plate format. The end concentration of the ATP substrate was […], and that of the ULight-4E-BP1 (Thr37/Thr46) substrate peptide was 100 nM, and of CDK12 was 30 nM. Pre-incubation of the compound and enzyme was performed for 60 min at room temperature. After 60 min incubation at room temperature, the reaction was terminated by the addition of 40 mM EDTA and 0.5 nM Eu-labeled anti-phospho-eIF4E-binding protein (Thr37/46) antibody in LANCE detection buffer. Time-resolved fluorescence (excitation, 320 nm; emission donor, 615 nm; emission acceptor, 665 nm) was monitored by using 2030 multilabel reader Victor5 (PerkinElmer). The Fluorescence emission of the samples were measured and the ratio was plotted against the compound concentration to generate the dose response curve. The IC50 values were derived by fitting a sigmoidal dose-response curve to a plot of assay readout over inhibitor concentration. All fits were computed with the program Prism 5.03 (Graph Pad Software, San Diego, CA). The % inhibition values at […] were calculated with respect to enzyme activity.

CDK12, sequence (Q9NYV4 whole entry): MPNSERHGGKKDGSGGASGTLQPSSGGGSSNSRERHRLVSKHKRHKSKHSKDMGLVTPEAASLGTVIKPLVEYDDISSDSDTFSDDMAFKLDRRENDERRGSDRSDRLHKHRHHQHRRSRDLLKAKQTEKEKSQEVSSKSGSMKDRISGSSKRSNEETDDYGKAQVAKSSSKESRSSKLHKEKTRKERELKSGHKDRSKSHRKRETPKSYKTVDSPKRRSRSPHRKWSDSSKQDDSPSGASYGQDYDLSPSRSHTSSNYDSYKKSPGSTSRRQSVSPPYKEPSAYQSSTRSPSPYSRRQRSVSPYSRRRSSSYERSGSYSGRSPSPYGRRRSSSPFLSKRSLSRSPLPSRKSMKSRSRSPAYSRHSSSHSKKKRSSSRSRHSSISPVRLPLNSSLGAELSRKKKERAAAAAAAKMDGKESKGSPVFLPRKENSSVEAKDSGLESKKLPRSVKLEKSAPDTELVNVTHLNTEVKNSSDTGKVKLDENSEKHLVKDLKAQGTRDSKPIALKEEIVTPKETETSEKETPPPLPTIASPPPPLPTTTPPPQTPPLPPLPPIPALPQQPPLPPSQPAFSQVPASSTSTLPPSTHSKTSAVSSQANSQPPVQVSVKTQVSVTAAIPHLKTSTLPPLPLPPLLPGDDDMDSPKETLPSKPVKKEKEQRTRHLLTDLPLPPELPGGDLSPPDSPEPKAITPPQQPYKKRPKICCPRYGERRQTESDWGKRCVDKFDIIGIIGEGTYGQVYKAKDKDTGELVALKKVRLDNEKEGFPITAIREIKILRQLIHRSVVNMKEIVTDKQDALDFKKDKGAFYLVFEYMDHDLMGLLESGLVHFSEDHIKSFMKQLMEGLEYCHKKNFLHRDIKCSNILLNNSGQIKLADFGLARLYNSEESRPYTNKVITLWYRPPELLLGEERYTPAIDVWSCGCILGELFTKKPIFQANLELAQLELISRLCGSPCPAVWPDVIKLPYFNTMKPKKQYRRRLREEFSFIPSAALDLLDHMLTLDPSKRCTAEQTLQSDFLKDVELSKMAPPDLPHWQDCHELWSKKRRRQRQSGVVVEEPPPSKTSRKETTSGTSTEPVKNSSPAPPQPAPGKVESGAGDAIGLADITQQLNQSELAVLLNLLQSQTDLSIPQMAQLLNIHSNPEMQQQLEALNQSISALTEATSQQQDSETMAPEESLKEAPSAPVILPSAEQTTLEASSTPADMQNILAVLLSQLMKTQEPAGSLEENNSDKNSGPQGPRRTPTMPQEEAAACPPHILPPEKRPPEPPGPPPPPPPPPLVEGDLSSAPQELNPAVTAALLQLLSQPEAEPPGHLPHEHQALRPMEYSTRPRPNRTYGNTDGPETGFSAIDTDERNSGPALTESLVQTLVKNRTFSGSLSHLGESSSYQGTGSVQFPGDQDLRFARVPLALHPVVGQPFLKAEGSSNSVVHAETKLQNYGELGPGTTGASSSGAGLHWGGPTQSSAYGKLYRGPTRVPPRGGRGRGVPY
CDK12, sequence (O75909 whole entry partner): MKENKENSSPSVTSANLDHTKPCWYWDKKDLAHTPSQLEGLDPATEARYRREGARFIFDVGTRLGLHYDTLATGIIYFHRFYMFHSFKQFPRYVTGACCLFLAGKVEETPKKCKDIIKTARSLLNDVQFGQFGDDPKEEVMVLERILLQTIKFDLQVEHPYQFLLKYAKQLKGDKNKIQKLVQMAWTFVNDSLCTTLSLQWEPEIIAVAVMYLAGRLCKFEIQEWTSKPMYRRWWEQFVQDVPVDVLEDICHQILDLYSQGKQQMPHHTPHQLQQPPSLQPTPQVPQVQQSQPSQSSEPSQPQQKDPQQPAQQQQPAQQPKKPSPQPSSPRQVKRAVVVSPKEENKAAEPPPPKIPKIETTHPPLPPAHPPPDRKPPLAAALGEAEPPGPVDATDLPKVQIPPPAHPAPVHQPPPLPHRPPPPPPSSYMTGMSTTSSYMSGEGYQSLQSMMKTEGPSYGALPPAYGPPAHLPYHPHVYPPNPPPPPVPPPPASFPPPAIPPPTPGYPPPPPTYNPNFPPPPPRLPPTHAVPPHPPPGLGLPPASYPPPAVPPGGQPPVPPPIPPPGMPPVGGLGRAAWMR

Row | Structure (SMILES) | IC50 | CDK12 % Inhibition @ 10 μM | inhibition at 10 µM
1 | CNC(=O)C(C)Oc1cc(NC(=O)Cc2ccc(C3=CCN(C#N)CC3)nc2)ncc1Cl (stereo not drawn) [Compound 1, 2-((5-chloro-2-(2-(1′-cyano-1′,2′,3′,6′-tetrahydro-[2,4′-bipyridin]-5-yl)acetamido)pyridin-4-yl)oxy)-N-methylpropanamide] | < 0.01 µM | – | 92%
2 | N#CN1CC=C(c2ccc(CC(=O)Nc3ccc(Cl)cn3)cn2)CC1 [Compound 4, N-(5-chloropyridin-2-yl)-2-(1′-cyano-1′,2′,3′,6′-tetrahydro-[2,4′-bipyridin]-5-yl)acetamide] | 0.01 to 0.1 µM | – | 75%
3 | N#CN1CCC=C(c2ccc(CC(=O)Nc3ccc(Cl)cn3)cn2)C1 [Compound 5, N-(5-chloropyridin-2-yl)-2-(1′-cyano-1′,2′,5′,6′-tetrahydro-[2,3′-bipyridin]-5-yl)acetamide] | 0.01 to 0.1 µM | – | 75%
4 | N#CN1CC=C(c2ccc(CC(=O)Nc3ccc(Cl)cn3)cn2)C1 [Compound 6, N-(5-chloropyridin-2-yl)-2-(6-(1-cyano-2,5-dihydro-1H-pyrrol-3-yl)pyridin-3-yl)acetamide] | < 0.01 µM | – | 78%
5 | N#CN1CC=C(c2ccc(CC(=O)Nc3cc(N4CCOCC4)c(Cl)cn3)cn2)CC1 [Compound 7, N-(5-chloro-4-morpholinopyridin-2-yl)-2-(1′-cyano-1′,2′,3′,6′-tetrahydro-[2,4′-bipyridin]-5-yl)acetamide] | 0.01 to 0.1 µM | – | 88%
6 | COc1cc(NC(=O)Cc2ccc(C3=CCN(C#N)CC3)nc2)ncc1Cl [Compound 8, N-(5-chloro-4-methoxypyridin-2-yl)-2-(1′-cyano-1′,2′,3′,6′-tetrahydro-[2,4′-bipyridin]-5-yl)acetamide] | < 0.01 µM | – | 82%
7 | CN1CCN(c2cc(NC(=O)Cc3ccc(C4=CCN(C#N)CC4)nc3)ncc2Cl)CC1 [Compound 9, N-(5-chloro-4-(4-methylpiperazin-1-yl)pyridin-2-yl)-2-(1′-cyano-1′,2′,3′,6′-tetrahydro-[2,4′-bipyridin]-5-yl)acetamide] | – | – | 64%
8 | Cc1cc(CC(=O)Nc2ccc(Cl)cn2)cnc1C1=CCN(C#N)CC1 [Compound 13, N-(5-chloropyridin-2-yl)-2-(1′-cyano-3-methyl-1′,2′,3′,6′-tetrahydro-[2,4′-bipyridin]-5-yl)acetamide] | 0.01 to 0.1 µM | – | 75%
9 | COCC(C)Oc1cc(NC(=O)Cc2ccc(C3=CCN(C#N)CC3)nc2)ncc1Cl (stereo not drawn) [Compound 14, N-(5-chloro-4-((1-methoxypropan-2-yl)oxy)pyridin-2-yl)-2-(1′-cyano-1′,2′,3′,6′-tetrahydro-[2,4′-bipyridin]-5-yl)acetamide] | < 0.01 µM | – | 96%
10 | N#CN1CC=C(c2ccc(CC(=O)Nc3cc(C4(O)COC4)c(Cl)cn3)cn2)CC1 [Compound 17, N-(5-chloro-4-(3-hydroxyoxetan-3-yl)pyridin-2-yl)-2-(1′-cyano-1′,2′,3′,6′-tetrahydro-[2,4′-bipyridin]-5-yl)acetamide] | < 0.01 µM | – | 92%
11 | N#CN1CC=C(c2ncc(CC(=O)Nc3ccc(Cl)cn3)cc2F)CC1 [Compound 18, N-(5-chloropyridin-2-yl)-2-(1′-cyano-3-fluoro-1′,2′,3′,6′-tetrahydro-[2,4′-bipyridin]-5-yl)acetamide] | 0.01 to 0.1 µM | – | 87%
12 | CCOc1cc(NC(=O)Cc2ccc(C3=CCN(C#N)CC3)nc2)ncc1Cl [Compound 20, N-(5-chloro-4-ethoxypyridin-2-yl)-2-(1′-cyano-1′,2′,3′,6′-tetrahydro-[2,4′-bipyridin]-5-yl)acetamide] | < 0.01 µM | – | 109%
13 | CC(C)Oc1cc(NC(=O)Cc2ccc(C3=CCN(C#N)CC3)nc2)ncc1Cl [Compound 21, N-(5-chloro-4-isopropoxypyridin-2-yl)-2-(1′-cyano-1′,2′,3′,6′-tetrahydro-[2,4′-bipyridin]-5-yl)acetamide] | < 0.01 µM | – | 94%

The next lines start with the values.

Row | IC50 | CDK12 % Inhibition @ 10 μM | inhibition at 10 µM | Structure (SMILES)
14 | > 0.1 µM | 79% | – | CNC(=O)C(C)Oc1cc(NC(=O)Cc2ccc(C3CCCN(C#N)C3)nc2)ncc1Cl (single isomer, unassigned) [Compound 88, 2-((5-chloro-2-(2-(6-(1-cyanopiperidin-3-yl)pyridin-3-yl)acetamido)pyridin-4-yl)oxy)-N-methylpropanamide]
15 | 0.01 to 0.1 µM | 90% | – | CNC(=O)C(C)Oc1cc(NC(=O)Cc2ccc(C3CCCN(C#N)C3)nc2)ncc1Cl (single isomer, unassigned) [Compound 89, 2-((5-chloro-2-(2-(6-(1-cyanopiperidin-3-yl)pyridin-3-yl)acetamido)pyridin-4-yl)oxy)-N-methylpropanamide]
16 | 0.01 to 0.1 µM | 93% | – | CNC(=O)C(C)Oc1cc(NC(=O)Cc2ccc(C3CCCN(C#N)C3)nc2)ncc1Cl (single isomer, unassigned) [Compound 90, 2-((5-chloro-2-(2-(6-(1-cyanopiperidin-3-yl)pyridin-3-yl)acetamido)pyridin-4-yl)oxy)-N-methylpropanamide]
17 | 0.01 to 0.1 µM | 95% | – | CNC(=O)C(C)Oc1cc(NC(=O)Cc2ccc(C3CCCN(C#N)C3)nc2)ncc1Cl (single isomer, unassigned) [Compound 91, 2-((5-chloro-2-(2-(6-(1-cyanopiperidin-3-yl)pyridin-3-yl)acetamido)pyridin-4-yl)oxy)-N-methylpropanamide]
18 | 0.01 to 0.1 µM | – | 73% | N#CN1CCCC(c2ccc(CC(=O)Nc3cc(O[C@@H]4CCOC4)c(Cl)cn3)cn2)C1 (single isomer, unassigned) [Compound 93]
19 | 0.01 to 0.1 µM | 77% | – | N#CN1CCCC(c2ccc(CC(=O)Nc3cc(O[C@@H]4CCOC4)c(Cl)cn3)cn2)C1 (single isomer, unassigned) [Compound 94]
20 | > 0.1 µM | – | 91% | N#CN1CCCC(c2ccc(CC(=O)Nc3cc(O[C@H]4CCOC4)c(Cl)cn3)cn2)C1 (single isomer, unassigned) [Compound 96]
21 | 0.01 to 0.1 µM | 96% | – | N#CN1CCCC(c2ccc(CC(=O)Nc3cc(O[C@H]4CCOC4)c(Cl)cn3)cn2)C1 (single isomer, unassigned) [Compound 97]
22 | 0.01 to 0.1 µM | – | 86% | CN1CCC(Oc2cc(NC(=O)Cc3ccc(C4=CCN(C#N)CC4)nc3)ncc2Cl)C1 (stereo in doubt) [Compound 29, (R)-N-(5-chloro-4-((1-methylpyrrolidin-3-yl)oxy)pyridin-2-yl)-2-(1′-cyano-1′,2′,3′,6′-tetrahydro-[2,4′-bipyridin]-5-yl)acetamide]
23 | 0.01 to 0.1 µM | – | 82% | CN1CCC(Oc2cc(NC(=O)Cc3ccc(C4=CCN(C#N)CC4)nc3)ncc2Cl)C1 (stereo in doubt) [Compound 30, (S)-N-(5-chloro-4-((1-methylpyrrolidin-3-yl)oxy)pyridin-2-yl)-2-(1′-cyano-1′,2′,3′,6′-tetrahydro-[2,4′-bipyridin]-5-yl)acetamide]
24 | < 0.01 µM | – | 72% | CN1CCC(Oc2cc(NC(=O)Cc3ccc(C4=CCN(C#N)CC4)nc3)ncc2Cl)C1 (stereo not drawn) [Compound 10, N-(5-chloro-4-((1-methylpyrrolidin-3-yl)oxy)pyridin-2-yl)-2-(1′-cyano-1′,2′,3′,6′-tetrahydro-[2,4′-bipyridin]-5-yl)acetamide]
25 | 0.01 to 0.1 µM | – | 89% | CN1CCC(Oc2cc(NC(=O)Cc3ccc(C4=CCN(C#N)CC4)nc3)ncc2Cl)CC1 [Compound 11, N-(5-chloro-4-((1-methylpiperidin-4-yl)oxy)pyridin-2-yl)-2-(1′-cyano-1′,2′,3′,6′-tetrahydro-[2,4′-bipyridin]-5-yl)acetamide]
26 | < 0.01 µM | – | 84% | N#CN1CC=C(c2ccc(CC(=O)Nc3cc(OC4CCOC4)c(Cl)cn3)cn2)CC1 (stereo not drawn) [Compound 12, N-(5-chloro-4-((tetrahydrofuran-3-yl)oxy)pyridin-2-yl)-2-(1′-cyano-1′,2′,3′,6′-tetrahydro-[2,4′-bipyridin]-5-yl)acetamide]
27 | < 0.01 µM | – | 96% | N#CN1CC=C(c2ccc(CC(=O)Nc3cc(OC4COC4)c(Cl)cn3)cn2)CC1 [Compound 15, N-(5-chloro-4-(oxetan-3-yloxy)pyridin-2-yl)-2-(1′-cyano-1′,2′,3′,6′-tetrahydro-[2,4′-bipyridin]-5-yl)acetamide]
28 | 0.01 to 0.1 µM | – | 89% | N#CN1CCC(c2ccc(CC(=O)Nc3ccc(Cl)cn3)cn2)C1 (stereo not drawn) [Compound 16, N-(5-chloropyridin-2-yl)-2-(6-(1-cyanopyrrolidin-3-yl)pyridin-3-yl)acetamide]
29 | < 0.01 µM | – | 91% | N#CN1CC=C(c2ccc(CC(=O)Nc3cc(OC4CCOCC4)c(Cl)cn3)cn2)CC1 [Compound 19, N-(5-chloro-4-((tetrahydro-2H-pyran-4-yl)oxy)pyridin-2-yl)-2-(1′-cyano-1′,2′,3′,6′-tetrahydro-[2,4′-bipyridin]-5-yl)acetamide]
